The values below come from patent US12043613B2, “Inhibitors of SARM1” (Disarm Therapeutics, Inc., priority 2020, dated 2024).

pIC50: −log10 of the molar value. Where only a bound is given, the exact number is not on record here.

The target in the first assay is T1, SARM1 (ARM-SAM-TIR, full length SARM1) (Homo sapiens, UniProt Q6SZW1).
T1 sequence (Q6SZW1 with tags, fused parts or gaps): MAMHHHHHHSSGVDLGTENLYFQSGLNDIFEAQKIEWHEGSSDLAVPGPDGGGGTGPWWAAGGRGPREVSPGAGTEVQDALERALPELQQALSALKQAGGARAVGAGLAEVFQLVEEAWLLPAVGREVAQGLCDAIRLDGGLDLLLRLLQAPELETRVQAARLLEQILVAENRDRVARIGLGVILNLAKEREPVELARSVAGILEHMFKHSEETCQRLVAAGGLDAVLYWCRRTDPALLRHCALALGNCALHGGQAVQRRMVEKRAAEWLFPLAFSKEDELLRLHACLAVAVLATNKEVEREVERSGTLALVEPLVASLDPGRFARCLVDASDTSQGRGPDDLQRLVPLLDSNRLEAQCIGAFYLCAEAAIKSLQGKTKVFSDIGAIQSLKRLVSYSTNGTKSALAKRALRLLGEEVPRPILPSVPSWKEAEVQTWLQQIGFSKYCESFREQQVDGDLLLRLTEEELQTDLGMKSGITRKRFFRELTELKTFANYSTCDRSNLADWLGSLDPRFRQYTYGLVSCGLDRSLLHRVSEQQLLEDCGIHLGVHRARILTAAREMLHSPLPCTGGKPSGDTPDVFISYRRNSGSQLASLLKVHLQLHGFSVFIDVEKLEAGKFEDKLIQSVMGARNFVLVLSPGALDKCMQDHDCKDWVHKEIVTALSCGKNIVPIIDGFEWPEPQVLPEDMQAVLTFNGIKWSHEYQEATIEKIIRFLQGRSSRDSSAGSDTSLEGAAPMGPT
Test: not given
The settings on record: read-out: SARM1 IC50; ARM-SAM-TIR lysate 5 μg/mL from NRK1-HEK293T cells, 2 h pre-incubation, 5 uM NAD+, 2 hr room temperature.
By pIC50 is commonly meant the negative decadic logarithm of the IC50, by convention in mol/L. `O=C1C(Cc2ccc(Cl)cc2)CCCN1c1nnc(-c2ccncc2)[nH]1` (single isomer, unassigned) [I-5* (peak 2)]: the pIC50 is more than 7.30. With `O=C1C(Cc2ccc(F)c(F)c2)CCN1c1cc(-c2ccncc2)n[nH]1` (single isomer, unassigned) [I-16* (peak 2)], the pIC50 was more than 7.30. Consider `O=C1C(Cc2ccc(Cl)cc2)CCCN1c1cc(-c2ccncc2)n[nH]1` (single isomer, unassigned) [I-19* (peak 2)], for which the pIC50 was more than 7.30. Same read-out and setting: the figure for `N#Cc1ccc(CC2CCN(c3cc(-c4ccncc4)n[nH]3)C2=O)cc1F` (single isomer, unassigned) [I-37* (peak 2)] is 7.00 to 7.29; for `Cc1c(-c2ccncc2)n[nH]c1N1CCC(Cc2cnc(Cl)c(F)c2)C1=O` (single isomer, unassigned) [I-41* (peak 2)] it is 6.30 to 7.00. Still for that read-out and setting: the figure for `O=C1N(c2nc(-c3ccncc3)n[nH]2)CCC1(F)Cc1ccc(Cl)nc1` (single isomer, unassigned) [I-42* (peak 2)] is less than 6.00.

Regarding `Cc1c(-c2ccncc2)n[nH]c1N1CCC(Cc2ccc(Cl)nc2)C1=O` (single isomer, unassigned) [I-48* (peak 2)], the pIC50 is 6.30 to 7.00. In the case of `O=C1C(Cc2cnc(Cl)c(F)c2)CCN1c1cc(-c2ccncc2)n[nH]1` (single isomer, unassigned) [I-65* (peak 2)], the pIC50 is more than 7.30. With `O=C1[C@H](Cc2ccc(Cl)c(F)c2)CCCN1c1cc(-c2ccnnc2)n[nH]1` [I-76*], the pIC50 is more than 7.30.

Consider `O=C1[C@H](Cc2ccc(Cl)nc2)CCCN1c1cc(-c2ccnnc2)n[nH]1` [I-77*], for which the pIC50 is more than 7.30.

As to `O=C1[C@H](Cc2ccc(F)nc2)CCCN1c1cc(-c2ccnnc2)n[nH]1` [I-84*], the pIC50 was more than 7.30. The same measure, in the same setting: the figure for `O=C1[C@H](Cc2ccc(F)cc2)CCCN1c1cc(-c2ccnnc2)n[nH]1` [I-85*] is more than 7.30.

The target in a further assay is T1, SARM1 (ARM-SAM-TIR, full length SARM1). The experiment in a line: biochemical. The settings on record: SARM1 IC50 (nM), ARM-SAM-TIR lysate 5 μg/mL from NRK1-HEK293T cells, 2 h pre-incubation, 5 uM NAD+, 2 hr room temperature.
Description: This assay makes use of full length SARM1, which encompasses the ARM, SAM and TIR domains.
Preparation of ARM-SAM-TIR lysate (STL)
NRK1-HEK293T cells were seeded onto 150 cm^2 plates at 20×10^6 cells per plate. The next day, the cells were transfected with 15 g ARM-SAM-TIR expression plasmid, SEQ ID NO: 1.
The cultures were supplemented with 1 mM NR at time of transfection to minimize toxicity from ARM-SAM-TIR overexpression. Forty-eight hours after transfection, cells were harvested, pelleted by centrifugation at 1,000 rpm (Sorvall ST 16R centrifuge, Thermo Fisher), and washed once with cold PBS (0.01 M phosphate buffered saline NaCl 0.138 M; KCl 0.0027 M; pH 7.4). The cells were resuspended in PBS with protease inhibitors (cOmplete™ protease inhibitor cocktail, Roche product #11873580001) and cell lysates were prepared by sonication (Branson Sonifer 450, output=3, 20 episodes of stroke). The lysates were centrifuged (12,000×g for 10 min at 4° C.) to remove cell debris and the supernatants (containing ARM-SAM-TIR protein) were stored at −80° C. for later use in the in vitro ARM-SAM-TIR NADase assay (see below). Protein concentration was determined by the Bicinchoninic (BCA) method and used to normalize lysate concentrations.
ARM-SAM-TIR IC50 assay of Formula I compounds.
The enzymatic assay was performed in a 384-well polypropylene plate in Dulbecco's PBS buffer in a final assay volume of 20 μL. ARM-SAM-TIR lysate with a final concentration of 5 μg/mL was pre-incubated with the respective compound at 1% DMSO final assay concentration over 2h at room temperature. The reaction was initiated by addition of 5 uM final assay concentration of NAD+ as substrate. After a 2 hr room temperature incubation, the reaction was terminated with 40 μL of stop solution of 7.5% trichloroactetic acid in acetonitrile. The NAD+ and ADPR concentrations were analyzed by a RapidFire High Throughput Mass Spectrometry System (Agilent Technologies, Santa Clara, Calif.) using an API4000 triple quadrupole mass spectrometer (AB Sciex Framingham, Mass.).
The IC50 is the concentration that inhibits the measured activity by half. A higher IC50 goes with lower potency. Molecule `N#Cc1ccc(CC2CCCN(c3cc(-c4ccncc4)n[nH]3)C2=O)cn1` (stereo not drawn) [Compound I-94] showed an IC50 of 101 to 500 nM. On the same count and under the same terms, the figure for `O=C1C(Cc2ccc(C(F)(F)F)nc2)CCCN1c1cc(-c2ccncc2)n[nH]1` (stereo not drawn) [Compound I-96] is 101 to 500 nM; for `O=C1C(Cc2ccc(C(F)(F)F)nc2)CCCN1c1nc(-c2ccncc2)n[nH]1` (stereo not drawn) [Compound I-97] it is 101 to 500 nM. `N#Cc1ccc(CC2CCCN(c3cc(-c4ccncc4)n[nH]3)C2=O)cc1` (stereo not drawn) [Compound I-98] displayed an IC50 of less than 50 nM. In the case of `N#Cc1ccc(CC2CCCN(c3nc(-c4ccncc4)n[nH]3)C2=O)cc1` (stereo not drawn) [Compound I-99], the IC50 is 101 to 500 nM.

In the case of `N#Cc1cc(CC2CCCN(c3cc(-c4ccncc4)n[nH]3)C2=O)ccc1F` (stereo not drawn) [Compound I-100], the half-maximal inhibitory concentration (IC50) is less than 50 nM. In turn, `N#Cc1cc(CC2CCCN(c3nc(-c4ccncc4)n[nH]3)C2=O)ccc1F` (stereo not drawn) [Compound I-101] registered an IC50 of 101 to 500 nM. The molecule `N#Cc1cc(CC2CCCN(c3cc(-c4ccncc4)n[nH]3)C2=O)ccc1Cl` (stereo not drawn) [Compound I-102] showed an IC50 of 51 to 100 nM. Still for that read-out and setting: the figure for `N#Cc1cc(CC2CCCN(c3nc(-c4ccncc4)n[nH]3)C2=O)ccc1Cl` (stereo not drawn) [Compound I-103] is 101 to 500 nM; for `N#Cc1ccc(CC2CCN(c3nc(-c4ccncc4)n[nH]3)C2=O)cn1` (stereo not drawn) [Compound I-111] it is more than 1000 nM; for `O=C1C(Cc2ccc(C(F)(F)F)nc2)CCN1c1cc(-c2ccncc2)n[nH]1` (stereo not drawn) [Compound I-112] it is 101 to 500 nM. The molecule `N#Cc1ccc(CC2CCN(c3cc(-c4ccncc4)n[nH]3)C2=O)cc1` (stereo not drawn) [Compound I-114] came in with an IC50 of 101 to 500 nM. Turning to `N#Cc1ccc(CC2CCN(c3nc(-c4ccncc4)n[nH]3)C2=O)cc1` (stereo not drawn) [Compound I-115], the IC50 was in the range of 501 to 1000 nM. With `N#Cc1cc(CC2CCN(c3cc(-c4ccncc4)n[nH]3)C2=O)ccc1F` (stereo not drawn) [Compound I-116], the IC50 lay in the range of 101 to 500 nM. Same read-out and setting: the figure for `N#Cc1cc(CC2CCN(c3cc(-c4ccncc4)n[nH]3)C2=O)ccc1Cl` (stereo not drawn) [Compound I-118] is 101 to 500 nM.
